Experimental data taken from patent US9586951B2 (FUJIFILM Corporation, priority 2013, dated 2017).

Tests used:
[1] = system: human non-small cell lung cancer cell line NCI-H460; assay: Cell proliferation inhibition test by sensitivity-enhancing to ionizing radiation (Cell Titer Glo); assay type: cell-based; settings: concentration in which SER became 2, NCI-H460 cells, ionizing radiation 2 Gy, cultured 120 hour
Summary of the method: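 Radiosensitisation measured as SER, a ratio of Cell Titer Glo luminescence in irradiated vs unirradiated plates relative to DMSO; SER2, the concentration yielding SER 2, came from sigmoidal regression. Compound (0.1% DMSO) was given 24 h post-seeding, 2 Gy applied 30 min later, then 120 hour culture at 37° C.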

[2] = target: T1, ATM (Homo sapiens, UniProt Q13315); assay: ATM inhibition test (phosphorylation of Chk2 generated by ionizing radiation, AlphaScreen SureFire); assay type: cell-based; settings: phosphorylated Chk2 in NCI-H460 cells, ionizing radiation 8Gy, 1 hour after test compound treatment; read-out: ATM inhibitory activity
T1 construct: detecting phosphorylation of Chk2 in a human non-small cell lung cancer cell line NCI-H460 (ATCC company); host or cells: NCI-H460 human non-small cell lung cancer cells
T1 sequence (Q13315 whole entry): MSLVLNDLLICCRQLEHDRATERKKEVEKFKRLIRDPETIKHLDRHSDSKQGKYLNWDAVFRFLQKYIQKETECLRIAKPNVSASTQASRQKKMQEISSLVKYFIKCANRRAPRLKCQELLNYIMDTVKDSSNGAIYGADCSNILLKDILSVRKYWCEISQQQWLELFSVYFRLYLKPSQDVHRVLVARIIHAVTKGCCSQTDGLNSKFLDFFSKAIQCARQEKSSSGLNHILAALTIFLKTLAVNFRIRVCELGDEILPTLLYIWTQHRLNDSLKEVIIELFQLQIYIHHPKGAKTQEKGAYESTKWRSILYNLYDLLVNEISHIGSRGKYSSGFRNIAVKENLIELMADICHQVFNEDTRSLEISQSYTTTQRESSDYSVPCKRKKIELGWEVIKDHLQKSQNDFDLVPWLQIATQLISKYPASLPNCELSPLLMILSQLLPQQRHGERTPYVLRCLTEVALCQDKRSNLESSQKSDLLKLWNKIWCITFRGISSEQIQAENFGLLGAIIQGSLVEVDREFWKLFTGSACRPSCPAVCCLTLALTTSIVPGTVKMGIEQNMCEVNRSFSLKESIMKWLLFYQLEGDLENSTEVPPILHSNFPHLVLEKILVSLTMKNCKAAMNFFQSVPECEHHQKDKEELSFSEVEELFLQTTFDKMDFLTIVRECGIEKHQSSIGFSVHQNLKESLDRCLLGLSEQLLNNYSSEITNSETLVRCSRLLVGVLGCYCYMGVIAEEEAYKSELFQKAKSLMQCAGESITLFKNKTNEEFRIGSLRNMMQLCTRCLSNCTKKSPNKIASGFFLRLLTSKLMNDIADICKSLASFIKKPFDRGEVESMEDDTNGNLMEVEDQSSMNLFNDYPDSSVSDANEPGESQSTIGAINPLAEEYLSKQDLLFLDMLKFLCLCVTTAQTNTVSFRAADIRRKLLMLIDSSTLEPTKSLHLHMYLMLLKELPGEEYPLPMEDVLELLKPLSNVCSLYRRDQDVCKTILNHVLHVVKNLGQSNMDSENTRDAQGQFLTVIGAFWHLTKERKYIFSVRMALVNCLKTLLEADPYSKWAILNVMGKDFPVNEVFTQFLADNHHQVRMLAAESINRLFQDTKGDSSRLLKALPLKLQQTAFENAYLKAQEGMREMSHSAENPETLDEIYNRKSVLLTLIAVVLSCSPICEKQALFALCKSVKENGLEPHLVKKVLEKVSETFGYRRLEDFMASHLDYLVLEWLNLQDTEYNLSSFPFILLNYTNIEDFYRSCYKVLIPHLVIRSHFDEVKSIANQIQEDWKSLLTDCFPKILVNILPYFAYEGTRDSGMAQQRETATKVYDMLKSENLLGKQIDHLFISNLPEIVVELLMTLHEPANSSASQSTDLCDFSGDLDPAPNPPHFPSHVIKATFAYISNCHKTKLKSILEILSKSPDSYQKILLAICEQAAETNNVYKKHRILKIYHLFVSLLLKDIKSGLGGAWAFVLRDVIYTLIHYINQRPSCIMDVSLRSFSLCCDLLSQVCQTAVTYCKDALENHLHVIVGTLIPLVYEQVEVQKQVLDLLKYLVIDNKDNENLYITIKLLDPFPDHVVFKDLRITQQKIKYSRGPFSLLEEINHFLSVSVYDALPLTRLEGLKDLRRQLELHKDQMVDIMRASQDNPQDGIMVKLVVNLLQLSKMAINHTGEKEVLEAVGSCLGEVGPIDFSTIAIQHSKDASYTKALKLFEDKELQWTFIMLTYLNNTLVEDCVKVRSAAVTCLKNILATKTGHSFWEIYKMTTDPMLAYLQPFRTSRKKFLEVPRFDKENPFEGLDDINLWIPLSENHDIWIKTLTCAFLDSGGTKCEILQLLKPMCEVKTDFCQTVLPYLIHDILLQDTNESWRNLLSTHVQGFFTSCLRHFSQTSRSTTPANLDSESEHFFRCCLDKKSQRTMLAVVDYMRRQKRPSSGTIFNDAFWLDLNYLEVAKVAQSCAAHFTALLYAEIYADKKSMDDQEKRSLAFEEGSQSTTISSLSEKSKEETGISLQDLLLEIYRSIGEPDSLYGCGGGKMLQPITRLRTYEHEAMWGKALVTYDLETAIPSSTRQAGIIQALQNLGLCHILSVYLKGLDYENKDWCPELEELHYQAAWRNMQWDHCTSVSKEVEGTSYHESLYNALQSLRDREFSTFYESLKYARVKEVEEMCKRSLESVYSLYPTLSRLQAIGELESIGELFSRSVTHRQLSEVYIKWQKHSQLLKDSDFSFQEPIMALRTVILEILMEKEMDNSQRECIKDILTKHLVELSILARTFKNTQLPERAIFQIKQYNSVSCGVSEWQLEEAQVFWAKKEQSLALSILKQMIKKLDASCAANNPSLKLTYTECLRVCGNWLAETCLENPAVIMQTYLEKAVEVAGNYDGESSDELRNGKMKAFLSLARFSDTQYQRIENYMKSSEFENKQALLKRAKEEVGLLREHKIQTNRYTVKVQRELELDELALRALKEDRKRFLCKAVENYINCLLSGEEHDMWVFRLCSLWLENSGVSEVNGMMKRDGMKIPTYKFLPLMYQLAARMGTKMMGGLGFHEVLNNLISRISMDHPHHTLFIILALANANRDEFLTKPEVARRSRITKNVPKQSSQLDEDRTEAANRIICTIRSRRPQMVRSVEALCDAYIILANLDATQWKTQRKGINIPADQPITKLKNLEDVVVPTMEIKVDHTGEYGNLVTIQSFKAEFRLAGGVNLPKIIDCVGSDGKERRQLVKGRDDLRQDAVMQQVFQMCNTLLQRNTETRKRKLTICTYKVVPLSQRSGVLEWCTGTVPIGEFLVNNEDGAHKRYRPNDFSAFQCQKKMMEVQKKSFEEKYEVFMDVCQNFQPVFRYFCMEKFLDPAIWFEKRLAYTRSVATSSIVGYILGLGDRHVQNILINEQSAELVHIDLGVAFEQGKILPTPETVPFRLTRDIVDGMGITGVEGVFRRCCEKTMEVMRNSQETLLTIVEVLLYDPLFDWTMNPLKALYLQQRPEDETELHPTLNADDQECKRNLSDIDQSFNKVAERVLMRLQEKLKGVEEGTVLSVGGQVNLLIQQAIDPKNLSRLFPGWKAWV
Summary of the method: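 In NCI-H460 cells, radiation-triggered Chk2 phosphorylation (8Gy, 1 h) is detected by AlphaScreen SureFire following 1 h compound exposure.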

Compound `Cc1ccnc(C(C)Nc2ccc3c(c2)Sc2cccc(-c4cc(N5CCOCC5)cc(=O)[nH]4)c2S3)c1` (single isomer, unassigned) [Example 1-12-135-2, 6-(7-((1-(4-methylpyridin-2-yl)ethyl)amino)thianthren-1-yl)-4-morpholinopyridin-2(1H)-one] has an SER2 (concentration at which the radiation sensitivity-enhancement ratio reaches 2) [1] of 100 to 500 nM and an IC50 [2] of under 100 nM.
Compound `C=C(C)c1cncc(CNc2ccc3c(c2)Cc2cccc(-c4cc(N5CCOCC5)cc(=O)[nH]4)c2O3)c1` [Example 2-14-10, 4-Morpholino-6-(7-(((5-(prop-1-en-2-yl)pyridin-3-yl)methyl)amino)-9H-xanthen-4-yl)pyridin-2 (1H)-one] has an SER2 (concentration at which the radiation sensitivity-enhancement ratio reaches 2) ([1]; Homo sapiens, NCI-H460, 120 h) of 100 to 500 nM and an IC50 [2] of under 100 nM.
For `CC(Nc1ccc2c(c1)Sc1cccc(-c3cc(N4CCOCC4)cc(=O)[nH]3)c1S2)c1ncc(CO)cn1` (single isomer, unassigned) [Example 1-12-142-1, 6-(7-((1-(5-(hydroxymethyl)pyrimidin-2-yl)ethyl)amino)thianthren-1-yl)-4-morpholinopyridin-2(1H)-one], the SER2 (concentration at which the radiation sensitivity-enhancement ratio reaches 2) ([1]; Homo sapiens, NCI-H460, 120 h) was 100 to 500 nM and the IC50 [2] was under 100 nM.
Compound `COCC(Nc1ccc2c(c1)Sc1cccc(-c3cc(N4CCOCC4)cc(=O)[nH]3)c1S2)c1ncc(C)cn1` (stereo not shown) [Example 1-12-96, 6-(7-((2-Methoxy-1-(5-methylpyrimidin-2-yl)ethyl)amino)thianthren-1-yl)-4-morpholino pyridin-2(1H)-one] has an SER2 (concentration at which the radiation sensitivity-enhancement ratio reaches 2) ([1]; Homo sapiens, NCI-H460, 120 h) of 100 to 500 nM and an IC50 [2] of under 100 nM.
In the case of `Cc1cnc(C(C)Nc2ccc3c(c2)Sc2cccc(-c4cc(N5CCOCC5)cc(=O)[nH]4)c2S3)nc1` (single isomer, unassigned) [Example 1-12-139-2, 6-(7-((1-(5-methylpyrimidin-2-yl)ethyl)amino)thianthren-1-yl)-4-morpholinopyridin-2(1H)-one], the SER2 (concentration at which the radiation sensitivity-enhancement ratio reaches 2) [1] is reported as 100 to 500 nM and the IC50 [2] is reported as under 100 nM.
Compound `CC(CN1CCN(C)CC1)Nc1ccc2c(c1)Sc1cccc(-c3cc(N4CCOCC4)cc(=O)[nH]3)c1S2` (single isomer, unassigned) [Example 1-13-3-2, 6-(7-((1-(4-methylpiperazin-1-yl)propan-2-yl)amino)thianthren-1-yl)-4-morpholinopyridin-2(1H)-one] has an SER2 (concentration at which the radiation sensitivity-enhancement ratio reaches 2) ([1]; Homo sapiens, NCI-H460, 120 h) of 100 to 500 nM and an IC50 [2] of under 100 nM.
For `COc1cc(CNc2ccc3c(c2)Sc2cccc(-c4cc(N5CCOCC5)cc(=O)[nH]4)c2S3)ccn1` [Example 1-44-4, 6-(7-(((2-Methoxypyridin-4-yl)methyl)amino)thianthren-1-yl)-4-morpholino pyridin-2 (1H)-one], the SER2 (concentration at which the radiation sensitivity-enhancement ratio reaches 2) ([1]; Homo sapiens, NCI-H460, 120 h) was 500 to 2000 nM and the IC50 [2] was under 100 nM.
Compound `COCC(Nc1ccc2c(c1)Cc1cccc(-c3cc(N4CCOCC4)cc(=O)[nH]3)c1O2)c1cccc(C)n1` (stereo not shown) [Example 2-14-45, 6-(7-((2-Methoxy-1-(6-methylpyridin-2-yl)ethyl)amino)-9H-xanthen-4-yl)-4-morpholino pyridin-2 (1H)-one] has an SER2 (concentration at which the radiation sensitivity-enhancement ratio reaches 2) ([1]; Homo sapiens, NCI-H460, 120 h) of 100 to 500 nM and an IC50 [2] of under 100 nM.
In the case of `O=c1cc(N2CCOCC2)cc(-c2cccc3c2Oc2ccc(NCc4ccc(Cl)nc4)cc2C3)[nH]1` [Example 2-2-3], the SER2 (concentration at which the radiation sensitivity-enhancement ratio reaches 2) ([1]; Homo sapiens, NCI-H460, 120 h) is reported as 100 to 500 nM and the IC50 [2] is reported as 100 to 500 nM.
Work on `O=c1cc(N2CCOCC2)cc(-c2cccc3c2Sc2ccc(NC(CF)CN4CCOCC4)cc2S3)[nH]1` (racemic) [Example 1-41-1-1, 6-(7-((1-Fluoro-3-morpholinopropan-2-yl)amino)thianthren-1-yl)-4-morpholinopyridin-2(1H)-one] yielded an SER2 (concentration at which the radiation sensitivity-enhancement ratio reaches 2) ([1]; Homo sapiens) of under 100 nM and an IC50 [2] of under 100 nM.
In the case of `CC(Nc1ccc2c(c1)Sc1cccc(-c3cc(N4CCOCC4)cc(=O)[nH]3)c1S2)c1cc(CF)ncn1` (stereo not shown) [Example 1-12-91, 6-(7-((1-(6-(Fluoromethyl)pyrimidin-4-yl)ethyl)amino)thianthren-1-yl)-4-morpholino pyridin-2(1H)-one], the SER2 (concentration at which the radiation sensitivity-enhancement ratio reaches 2) ([1]; Homo sapiens, NCI-H460, 120 h) is reported as 100 to 500 nM and the IC50 [2] is reported as under 100 nM.
